Calls of active or inactive are those of the source.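 How the source made its calls: active means decreasing luminescence curve with half-maximal concentration at most twice the top tested dose, in every replicate run; inconclusive means replicate test runs disagree in their calls; inactive means every replicate run inactive, including responses in the opposite direction.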
These molecules were tested against Glycogen synthase kinase-3 beta (Homo sapiens) (UniProt P49841) (assay: GSK3beta inhibitors at high ATP, SAR follow-up, mechanism study for GSK3beta inhibitor project, biochemical, varied ATP levels, ADP-Glo luminescence, dry powder samples (AID 624027)). Details: GST-GSK3beta kinase, 100 uM ATP.
Glycogen synthase kinase-3 beta (Homo sapiens), sequence (P49841 whole entry, looked up): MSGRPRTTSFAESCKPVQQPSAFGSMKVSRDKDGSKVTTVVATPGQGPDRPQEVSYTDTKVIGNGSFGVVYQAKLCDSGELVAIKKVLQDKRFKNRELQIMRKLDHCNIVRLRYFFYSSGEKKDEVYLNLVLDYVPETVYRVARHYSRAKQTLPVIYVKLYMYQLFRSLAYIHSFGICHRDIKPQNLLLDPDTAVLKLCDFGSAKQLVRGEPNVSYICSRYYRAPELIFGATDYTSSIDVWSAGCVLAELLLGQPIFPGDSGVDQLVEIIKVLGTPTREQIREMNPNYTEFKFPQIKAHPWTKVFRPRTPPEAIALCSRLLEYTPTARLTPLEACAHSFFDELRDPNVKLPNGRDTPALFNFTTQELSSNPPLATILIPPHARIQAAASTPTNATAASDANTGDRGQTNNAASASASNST

SMILES | AC50
COc1ccccc1[C@@H]1C2=C(CC(C)(C)CC2=O)Nc2n[nH]c(C(F)(F)F)c21 | 143 nM
Cc1[nH]nc2c1[C@H](c1ccccc1C(F)(F)F)C1=C(CC(C)(C)CC1=O)N2 | 31900 nM
CC1(C)CC(=O)C2=C(C1)Nc1n[nH]c(C(F)(F)F)c1C2c1ccccc1F (centres undefined) | 932 nM
Cc1[nH]nc2c1C(c1ccc(C#N)cc1)C1=C(CC(C)(C)CC1=O)N2 (centres undefined) | 39800 nM
CC1(C)CC(=O)/C(=C\c2cccc(F)c2C(F)(F)F)C(=Nc2cc(C(F)(F)F)[nH]n2)C1 | 13200 nM
CC1(C)CC(=O)C2=C(C1)Nc1n[nH]c(C(F)(F)F)c1C2c1cc(F)ccc1C(F)(F)F (centres undefined) | 209 nM
CC1(C)CC(=O)C2=C(C1)Nc1n[nH]c(C(F)(F)F)c1C2c1ccccc1 (centres undefined) | 103 nM

Next, values leading:

AC50 | SMILES
2340 nM | CC1(C)CC(=O)C2=C(C1)Nc1n[nH]c(C(F)(F)F)c1C2c1cc(F)ccc1OC(F)(F)F (centres undefined)
231 nM | Cc1[nH]nc2c1[C@@H](c1ccccc1C(F)(F)F)C1=C(CC(C)(C)CC1=O)N2
41 nM | CC1(C)CC(=O)C2=C(C1)Nc1n[nH]c(C(F)(F)F)c1C2(C)c1ccccc1 (centres undefined)
25200 nM | CC1(C)CC(=O)/C(=C\c2ccccc2C(F)(F)F)C(=Nc2cc(C(F)(F)F)[nH]n2)C1
231 nM | Cc1[nH]nc2c1C(c1cccc3nonc13)C1=C(CC(C)(C)CC1=O)N2 (centres undefined)

Same assay, conditions: GST-GSK3beta kinase, 100 uM ATP, at 46 µM (top of the series)

activity change, negative = inhibition | SMILES
inactive | CNC(=O)c1cn(-c2ccccc2)nc1-c1ccc(OC)cc1
inactive | CN(C)Cc1cn(-c2ccccc2)nc1-c1ccccc1
